The values below come from patent publication US11926613B2, “Kinase inhibitors for the treatment of central and peripheral nervous system disorders” (UNIVERSITY OF MIAMI, priority 2017, dated 2024).

Assay [1] deals with neurons from hippocampi of E18 rat embryos. The assay is described as follows: Neurite growth length (% NTL) in cultured E18 rat hippocampal neurons, 9-point dose response, 48 hours. The conditions noted are these: Rattus norvegicus, Neuron, 48 h; for activity at 0.078 µM: 78 nM; for activity at 0.156 µM: 156 nM; for activity at 0.312 µM: 312 nM; for activity at 0.625 µM: 625 nM. It is filed as cell-based. In short, it runs like this:
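% NTL comes from automated neurite tracing of βIII-tubulin-stained cells, with 200–300 or more neurons per condition. Compounds were given in a 9-point dilution series (20 μM to 0.078125 μM) for 48 h. Cells were trypsin-dissociated E18 rat hippocampal neurons plated at 1500/well on poly-D-lysine.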

Another assay has as its system Primary Neurons. Put plainly: HCS neurite outgrowth assay (High Content Screening with Primary Neurons). It is filed as cell-based. The conditions noted are these: Primary neuron.

Consider `COc1ccc(OC)c(C(=O)c2ccc(C(=O)N[C@@H]3CCCC[C@H]3NC(=O)c3ccncc3)cc2)c1F` [Example A21, N-[(1R,2R)-2-[4-(2-fluoro-3,6-dimethoxybenzoyl)benzamido]cyclohexyl] pyridine-4-carboxamide], for which, in assay [1], the activity at 0.078 µM came out at 84.7%, the activity at 0.156 µM was 83.3%, the activity at 0.312 µM came to 79.8% and the activity at 0.625 µM was 81.8%. In assay [1], the activity at 1.25 µM was 86.8%, the activity at 2.5 µM was found to be 91.5%, the activity at 5 µM turned out to be 102% and the activity at 10 µM worked out at 107%. Besides, the activity at 20 µM in assay [1] was determined as 108%. The EC50 (as a rule, the concentration that produces a half-maximal response) in the assay on Primary Neurons turned out to be 2920 nM.

With `COc1ccc(O)c(C(=O)c2ccc(C(=O)N[C@@H]3CNC[C@H]3NC(=O)c3ccnc(N)n3)cc2)c1F` [Example A36, 2-amino-N-[(3R,4R)-4-[4-(2-fluoro-6-hydroxy-3-methoxybenzoyl)benzamido]pyrrolidin-3-yl]pyrimidine-4-carboxamide], in assay [1], the activity at 0.078 µM was found to be 116%, the activity at 0.156 µM was determined as 126%, the activity at 0.312 µM was determined as 131% and the activity at 0.625 µM was found to be 149%. In assay [1], the activity at 1.25 µM came to 239%, the activity at 2.5 µM was found to be 358%, the activity at 5 µM was 516% and the activity at 10 µM turned out to be 480%. For the same compound, in assay [1], the activity at 20 µM worked out at 470%. In the assay on Primary Neurons, this compound yielded a concentration giving a half-maximal response (EC50) of 1840 nM.

With `COc1ccc(OC)c(C(=O)c2ccc(C(=O)N3CCN(C(=O)c4ccncc4)CC3)cc2)c1F` [Example A8, 1-[4-(2-fluoro-3,6-dimethoxybenzoyl)benzoyl]-4-(pyridine-4-carbonyl)piperazine], in assay [1], the activity at 0.078 µM stood at 99.2%, the activity at 0.156 µM stood at 98.7%, the activity at 0.312 µM stood at 96.4% and the activity at 0.625 µM stood at 99%. Besides, in assay [1], the activity at 1.25 µM came to 92.9%, the activity at 2.5 µM worked out at 94.4%, the activity at 5 µM came out at 93.8% and the activity at 10 µM was 93.2%. The activity at 20 µM in assay [1] was 81.6%. The compound further yielded an EC50 in the assay with Primary Neurons greater than 20000 nM.

For the compound `COc1ccc(O)c(C(=O)c2ccc(C(=O)N[C@@H]3CNC[C@H]3NC(=O)c3ccnc(N)n3)cc2)c1` [Example A76, 2-amino-N-[(3R,4R)-4-[4-(2-hydroxy-5-methoxybenzoyl)benzamido]pyrrolidin-3-yl]pyrimidine-4-carboxamide], in assay [1], the activity at 0.078 µM was 131%, the activity at 0.156 µM is 121%, the activity at 0.312 µM was determined as 140% and the activity at 0.625 µM was determined as 156%. In addition, in assay [1], the activity at 1.25 µM is 169%, the activity at 2.5 µM was 207%, the activity at 5 µM was 317% and the activity at 10 µM was 558%. Moreover, the activity at 20 µM in assay [1] amounted to 692%. The 50% effective concentration (EC50) with Primary Neurons stood at 8370 nM.

For `COc1ccc(O)c(C(=O)c2ccc(C(=O)N[C@@H]3CNC[C@H]3NC(=O)c3ccc4[nH]ncc4c3)cc2)c1F` [Example A42, N-[(3R,4R)-4-[4-(2-fluoro-6-hydroxy-3-methoxybenzoyl)benzamido]pyrrolidin-3-yl]-1H-indazole-5-carboxamide], in assay [1], the activity at 0.078 µM was 115%, the activity at 0.156 µM came out at 110%, the activity at 0.312 µM was found to be 126% and the activity at 0.625 µM came to 118%. Besides, in assay [1], the activity at 1.25 µM is 169%, the activity at 2.5 µM turned out to be 255%, the activity at 5 µM was found to be 403% and the activity at 10 µM was 431%. Further, the activity at 20 µM in assay [1] came to 369%. Besides, in the assay with Primary Neurons, a half-maximal response (EC50) required 2450 nM.

As to `Cc1cc(C(=O)N[C@@H]2CNC[C@H]2NC(=O)c2ccncc2)ccc1C(=O)c1ccccc1O` [Example A64, N-[(3R,4R)-4-[4-(2-hydroxybenzoyl)-3-methylbenzamido]pyrrolidin-3-yl]pyridine-4-carboxamide], in assay [1], the activity at 0.078 µM came out at 91.3%, the activity at 0.156 µM turned out to be 99.8%, the activity at 0.312 µM was found to be 107% and the activity at 0.625 µM amounted to 105%. Further, in assay [1], the activity at 1.25 µM stood at 116%, the activity at 2.5 µM was 129%, the activity at 5 µM was determined as 124% and the activity at 10 µM came to 121%. In assay [1], the activity at 20 µM is 126%. In the assay with Primary Neurons, the EC50 was found to be 593 nM.

`COc1ccc(OC)c(C(=O)c2ccc(C(=O)O[C@@H]3CCN(C)C[C@H]3NC(=O)c3ccncc3)cc2)c1F` [Example A30, (3R,4R)-1-methyl-3-(pyridine-4-amido)piperidin-4-yl 4-(2-fluoro-3,6-dimethoxybenzoyl)benzoate]: in assay [1], the activity at 0.078 µM stood at 93.1%, the activity at 0.156 µM came to 89.7%, the activity at 0.312 µM worked out at 90.5% and the activity at 0.625 µM was determined as 83.5%. In assay [1], the activity at 1.25 µM came to 93.8%, the activity at 2.5 µM came out at 94.8%, the activity at 5 µM came to 103% and the activity at 10 µM came to 107%. Moreover, the activity at 20 µM in assay [1] came to 117%. Besides, the half-maximal effective concentration (EC50) with Primary Neurons was 4920 nM.

Consider `Nc1nccc(C(=O)N[C@@H]2CNC[C@H]2NC(=O)c2ccc(C(=O)c3cc(Cl)ccc3O)cc2)n1` [Example A84, 2-amino-N-[(3R,4R)-4-[4-(5-chloro-2-hydroxybenzoyl)benzamido]pyrrolidin-3-yl]pyrimidine-4-carboxamide], for which, in assay [1], the activity at 0.078 µM came to 115%, the activity at 0.156 µM came out at 118%, the activity at 0.312 µM was 125% and the activity at 0.625 µM was 139%. Further, in assay [1], the activity at 1.25 µM was determined as 153%, the activity at 2.5 µM amounted to 165%, the activity at 5 µM came to 270% and the activity at 10 µM was 492%. The activity at 20 µM in assay [1] came to 564%. In the assay on Primary Neurons, this compound came in with an EC50 of 6860 nM.

In the case of `COc1cc(C(=O)c2ccccc2O)ccc1C(=O)N[C@@H]1CNC[C@H]1NC(=O)c1ccnc(N)n1` [Example A68, 2-amino-N-[(3R,4R)-4-[4-(2-hydroxybenzoyl)-2-methoxybenzamido]pyrrolidin-3-yl]pyrimidine-4-carboxamide], in assay [1], the activity at 0.078 µM stood at 101%, the activity at 0.156 µM was 95.7%, the activity at 0.312 µM stood at 94.8% and the activity at 0.625 µM was determined as 91.2%. For the same compound, in assay [1], the activity at 1.25 µM was determined as 102%, the activity at 2.5 µM was determined as 101%, the activity at 5 µM stood at 96.8% and the activity at 10 µM was found to be 102%. For the same compound, the activity at 20 µM in assay [1] turned out to be 94.3%. The midpoint of the response with Primary Neurons, the EC50, lay at 1240 nM.

For the compound `COc1ccc(O)c(C(O)c2ccc(C(=O)N[C@@H]3CNC[C@H]3NC(=O)c3ccnc(N)n3)cc2)c1F` (stereo partly drawn) [Example A44, 2-amino-N-[(3R,4R)-4-{4-[(2-fluoro-6-hydroxy-3-methoxyphenyl)(hydroxy)methyl]benzamido}pyrrolidin-3-yl]pyrimidine-4-carboxamide], in assay [1], the activity at 0.078 µM was found to be 94%, the activity at 0.156 µM stood at 87.1%, the activity at 0.312 µM came out at 78.8% and the activity at 0.625 µM was found to be 76.4%. In assay [1], the activity at 1.25 µM was 99.4%, the activity at 2.5 µM is 96.2%, the activity at 5 µM is 104% and the activity at 10 µM worked out at 103%. Besides, the activity at 20 µM in assay [1] is 105%. The compound further displayed a 50% effective concentration (EC50) in the assay with Primary Neurons of 2050 nM.

Regarding `O=C(N[C@@H]1CNC[C@H]1NC(=O)c1ccncc1)c1ccncc1` (stereo in doubt) [Example A10, N-[(3R,4R)-4-(pyridine-4-amido)pyrrolidin-3-yl]pyridine-4-carboxamide], in assay [1], the activity at 0.078 µM was found to be 91.7%, the activity at 0.156 µM was determined as 91.2%, the activity at 0.312 µM came out at 87.5% and the activity at 0.625 µM worked out at 88.2%. In assay [1], the activity at 1.25 µM came to 83.7%, the activity at 2.5 µM turned out to be 82.9%, the activity at 5 µM was found to be 85.9% and the activity at 10 µM worked out at 86%. In addition, the activity at 20 µM in assay [1] was determined as 92.6%. The compound also displayed an EC50 with Primary Neurons of 930 nM.

`O=C(c1ccccc1)c1ccc(C(=O)N2CCN(C(=O)c3ccncc3)CC2)cc1` [Example A7, 1-(4-benzoylbenzoyl)-4-(pyridine-4-carbonyl)piperazine]: in assay [1], the activity at 0.078 µM came to 97%, the activity at 0.156 µM was found to be 94.8%, the activity at 0.312 µM was determined as 95.7% and the activity at 0.625 µM came out at 91.2%. In addition, in assay [1], the activity at 1.25 µM was 90.8%, the activity at 2.5 µM amounted to 88.3%, the activity at 5 µM turned out to be 92% and the activity at 10 µM stood at 86.4%. In assay [1], the activity at 20 µM was 91.8%. A half-maximal response in the assay on Primary Neurons (EC50) required 1660 nM.

For the compound `COc1ccc(OC)c(C(=O)c2ccc(C(=O)N[C@@H]3CCCCC[C@H]3NC(=O)c3ccncc3)cc2)c1F` [Example A24, N-[(1R,2R)-2-[4-(2-fluoro-3,6-dimethoxybenzoyl)benzamido]cycloheptyl] pyridine-4-carboxamide], in assay [1], the activity at 0.078 µM stood at 96.3%, the activity at 0.156 µM came out at 96.8%, the activity at 0.312 µM was determined as 93.4% and the activity at 0.625 µM stood at 96.9%. Also, in assay [1], the activity at 1.25 µM amounted to 91.8%, the activity at 2.5 µM stood at 101%, the activity at 5 µM was 114% and the activity at 10 µM was 131%. Further, in assay [1], the activity at 20 µM turned out to be 169%. Also, a half-maximal effect with Primary Neurons (EC50) was put at 16100 nM.
